Laboratory results: BindingDB's records for patent US10188615 (ACUCELA INC., 2019)

Biological target: T1, Retinoid isomerohydrolase (Human, UniProt Q16518)
T1 sequence (Q16518 whole entry): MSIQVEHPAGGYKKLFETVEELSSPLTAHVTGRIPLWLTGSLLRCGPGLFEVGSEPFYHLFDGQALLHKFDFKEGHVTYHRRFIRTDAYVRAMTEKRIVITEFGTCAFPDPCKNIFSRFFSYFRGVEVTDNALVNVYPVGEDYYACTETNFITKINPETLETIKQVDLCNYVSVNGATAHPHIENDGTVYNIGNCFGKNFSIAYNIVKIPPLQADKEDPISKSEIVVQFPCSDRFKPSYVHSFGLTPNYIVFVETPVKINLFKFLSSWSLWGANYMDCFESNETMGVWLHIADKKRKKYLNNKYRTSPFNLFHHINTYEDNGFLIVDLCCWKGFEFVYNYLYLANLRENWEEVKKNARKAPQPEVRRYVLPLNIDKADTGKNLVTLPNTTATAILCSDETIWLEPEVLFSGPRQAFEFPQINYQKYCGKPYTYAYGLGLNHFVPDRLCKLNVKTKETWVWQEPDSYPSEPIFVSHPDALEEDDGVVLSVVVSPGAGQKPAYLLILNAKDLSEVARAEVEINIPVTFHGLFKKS
Test: In Vitro Isomerase Inhibition Assay

Row | SMILES | IC50
1 | NCCOc1cccc(OCCc2ccccc2)c1 [US10188615, Example 47] | in the range around 55 nM
2 | CCC(O)(CC)COc1cccc(OCCN)c1 [US10188615, Example 31] | in the range around 550 nM
3 | NCCOc1cccc(OCCCOCc2ccccc2)c1 [US10188615, Example 94] | in the range around 550 nM
4 | NCCCc1cccc(OCc2nccs2)c1 [US10188615, Example 122] | in the range around 550 nM
5 | CCCC(O)COc1cccc(C(O)CCN)c1 (stereo not given) [US10188615, Example 163] | in the range around 55 nM
6 | NCCS(=O)(=O)c1cccc(OCC2CCCCC2)c1 [US10188615, Example 125] | in the range around 550 nM
7 | Cc1ccc(OCC2CCCCC2)cc1OCCN [US10188615, Example 160] | in the range around 5500 nM
8 | C[C@@H](CN)Oc1cccc(OCC2CCCCC2)c1 [US10188615, Example 65] | in the range around 550 nM
9 | NCCC(O)c1cccc(OCc2c(Cl)cccc2Cl)c1 (stereo not given) [US10188615, Example 105] | in the range around 55 nM
10 | NC[C@H](O)[C@@H](O)c1cccc(OCC2CCCCC2)c1 [US10188615, Example 177] | 100 to 1000 nM
11 | NCCCc1cccc(OCC2CCCC2)c1 [US10188615, Example 103] | in the range around 55 nM
12 | CCCC(CCC)COc1cccc(OCCN)c1 [US10188615, Example 25] | in the range around 55 nM
13 | NCCC(O)c1cccc(OCC2CCCCO2)c1 (stereo not given) [US10188615, Example 83] | in the range around 55 nM
14 | CCCCCOc1cccc(OCCN)c1 [US10188615, Example 90] | in the range around 55 nM
15 | NC[C@@H](O)[C@@H](O)c1cccc(OCC2CCCCC2)c1 [US10188615, Example 180] | in the range around 55 nM
16 | NCC[S+]([O-])c1cccc(OCC2CCCCC2)c1 (stereo not given) [US10188615, Example 124] | in the range around 550 nM
17 | C=C(CCN)c1cccc(OCC2CCCCC2)c1 [US10188615, Example 78] | in the range around 550 nM
18 | NCCC(O)c1cccc(OCC(O)c2ccccc2)c1 (stereo not given) [US10188615, Example 161] | in the range around 55 nM
19 | NCCC(F)c1cccc(OCC2CCCCC2)c1 (stereo not given) [US10188615, Example 193] | in the range around 55 nM
20 | NCCOc1cccc(OCC2(O)CCCCCC2)c1 [US10188615, Example 18] | in the range around 550 nM
21 | CC(=O)O[C@@H]1CCCC[C@H]1COc1cccc([C@H](O)CCN)c1 [US10188615, Example 173] | in the range around 55 nM
22 | NCCC(O)c1cccc(OCC2CC2)c1 (stereo not given) [US10188615, Example 71] | in the range around 55 nM
23 | NCCCc1cccc(OCCCCOCc2ccccc2)c1 [US10188615, Example 42] | in the range around 5500 nM

Further lines, results first:

Row | IC50 | SMILES
24 | in the range around 55 nM | CCCC(CCC)COc1cccc(C[C@H](O)CN)c1 [US10188615, Example 67]
25 | in the range around 5500 nM | NCCCc1cccc(OCCCO)c1 [US10188615, Example 98]
26 | in the range around 55 nM | CNCCC(O)c1cccc(OCC2CCCCC2)c1 (stereo not given) [US10188615, Example 187]
27 | in the range around 55 nM | NCCCc1cccc(OC[C@@H]2CCCC[C@H]2O)c1 (relative stereo) [US10188615, Example 148]
28 | in the range around 5500 nM | NCCC(O)c1cccc(OCCO)c1 (stereo not given) [US10188615, Example 109]
29 | in the range around 55 nM | CCC(CC)COc1cccc(C[C@@H](O)CN)c1 [US10188615, Example 69]
30 | in the range around 550 nM | CC(C)CCOc1cccc(CCCN)c1 [US10188615, Example 33]
31 | in the range around 5500 nM | CCCC(O)COc1cccc(OCCN)c1 (stereo not given) [US10188615, Example 159]
32 | in the range around 550 nM | NCCNc1cccc(OCC2CCCCC2)c1 [US10188615, Example 129]
33 | in the range around 550 nM | NCCC(CO)c1cccc(OCC2CCCCC2)c1 (stereo not given) [US10188615, Example 80]
34 | in the range around 55 nM | NCCC(O)c1cccc(OCc2ccccc2)c1 (stereo not given) [US10188615, Example 37]
35 | in the range around 550 nM | NCC/C(=N\N)c1cccc(OCC2CCCCC2)c1 [US10188615, Example 126]
36 | in the range around 55 nM | NCCC(O)c1cccc(OCC2CCCCCCC2)c1 (stereo not given) [US10188615, Example 106]
37 | in the range around 550 nM | CC(C)C(O)COc1cccc(OCCN)c1 (stereo not given) [US10188615, Example 153]
38 | in the range around 55 nM | COCCCOc1cccc(C(O)CCN)c1 (stereo not given) [US10188615, Example 108]
39 | in the range around 55 nM | CC(C)CCOc1cccc(C(O)CCN)c1 (stereo not given) [US10188615, Example 107]

Row | IC50 | SMILES
40 | in the range around 55 nM | NCCC(O)c1cccc(OCCc2ccccc2)c1 (stereo not given) [US10188615, Example 54]
41 | in the range around 550 nM | NCCCc1cc(F)cc(OCC2CCCCC2)c1 [US10188615, Example 168]
42 | in the range around 550 nM | C[C@@H](CN)Oc1cccc(OCC2CCCC2)c1 [US10188615, Example 64]
43 | in the range around 550 nM | NCCCc1cccc(OCc2ccccc2)c1 [US10188615, Example 59]
44 | in the range around 55 nM | C[C@@H](CN)[C@H](O)c1cccc(OCC2CCCCC2)c1 [US10188615, Example 73]
45 | in the range around 5500 nM | CN(CCN)c1cccc(OCC2CCCCC2)c1 [US10188615, Example 128]
46 | in the range around 550 nM | NCCOc1cccc(OCC2(O)CCCCCCC2)c1 [US10188615, Example 139]
47 | in the range around 5500 nM | NCCOc1cccc(OCCCCOCc2ccccc2)c1 [US10188615, Example 100]
48 | in the range around 55 nM | C[C@@H](CN)[C@@H](O)c1cccc(OCC2CCCCC2)c1 [US10188615, Example 75]
49 | in the range around 550 nM | COCCOc1cccc(C(O)CCN)c1 (stereo not given) [US10188615, Example 86]
50 | in the range around 550 nM | C[C@H](CN)Oc1cccc(OCC2CCCCC2)c1 [US10188615, Example 53]
51 | in the range around 550 nM | COCCCCOc1cccc(OCCN)c1 [US10188615, Example 82]
52 | in the range around 5500 nM | Cc1cccc(C)c1COc1cccc(CCCN)c1 [US10188615, Example 137]
53 | in the range around 550 nM | NCCCc1cccc(OCC2CCCCCCC2)c1 [US10188615, Example 99]
54 | in the range around 55 nM | NCC#Cc1cccc(OCC2CCCCC2)c1 [US10188615, Example 197]
55 | in the range around 55 nM | NCCC(O)c1cccc(OCCCOCc2ccccc2)c1 (stereo not given) [US10188615, Example 131]
